Holding throughout (type): biochemical
One experiment deals with CSF1R (FMS) (Homo sapiens, UniProt P07333). In words: Invitrogen SelectScreen kinase profiling / IC50. The protocol: (§1) The FLT3 and VEGFR1/2 Kinase-Glo kinase assays were performed as reported by our earlier study. The VEGFR3 activity analysis was conducted using the same protocol described in the VEGFR1/2 assay. The kinase inhibition profiling and inhibitory activity of FLT3-D835Y, CSF1R, and TRKA were determined by Invitrogen SelectScreen® kinase profiling service (Carlsbad, California, USA).
Sequence of CSF1R (FMS) (P07333 20-972): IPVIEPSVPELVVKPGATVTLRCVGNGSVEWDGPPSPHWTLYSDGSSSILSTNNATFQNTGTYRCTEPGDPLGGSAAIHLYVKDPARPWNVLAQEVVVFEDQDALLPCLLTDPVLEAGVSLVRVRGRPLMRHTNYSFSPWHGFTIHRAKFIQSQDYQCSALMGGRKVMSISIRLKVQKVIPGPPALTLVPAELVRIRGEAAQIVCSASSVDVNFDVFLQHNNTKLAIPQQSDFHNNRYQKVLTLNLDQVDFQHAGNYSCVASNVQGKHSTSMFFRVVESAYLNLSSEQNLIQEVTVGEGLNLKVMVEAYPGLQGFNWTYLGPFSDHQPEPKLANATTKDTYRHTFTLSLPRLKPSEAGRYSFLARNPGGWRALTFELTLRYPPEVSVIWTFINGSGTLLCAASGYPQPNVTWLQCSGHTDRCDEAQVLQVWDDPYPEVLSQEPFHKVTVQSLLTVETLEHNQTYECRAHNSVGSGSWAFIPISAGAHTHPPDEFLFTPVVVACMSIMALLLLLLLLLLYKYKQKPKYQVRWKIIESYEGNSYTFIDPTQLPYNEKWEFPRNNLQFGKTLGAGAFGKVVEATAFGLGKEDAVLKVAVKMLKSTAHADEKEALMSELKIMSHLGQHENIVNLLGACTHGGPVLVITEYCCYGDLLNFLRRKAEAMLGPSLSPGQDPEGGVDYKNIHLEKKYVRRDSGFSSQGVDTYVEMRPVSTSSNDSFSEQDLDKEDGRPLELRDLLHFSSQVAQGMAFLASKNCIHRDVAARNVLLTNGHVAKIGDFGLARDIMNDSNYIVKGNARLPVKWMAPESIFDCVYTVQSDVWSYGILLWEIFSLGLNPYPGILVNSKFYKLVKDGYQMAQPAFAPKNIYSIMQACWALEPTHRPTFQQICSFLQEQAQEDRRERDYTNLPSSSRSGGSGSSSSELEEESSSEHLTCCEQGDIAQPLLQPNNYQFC
(§2) BPR1J-340, a urea-substituted 3-phenyl-1H-5-pyrazolylamine-based compound, was designed through chemical modification of sulfonamide series of derivatives (BPR1J-097 series) by a structure-activity relationship (SAR) study (Fig. 1), [32]. For kinase inhibition specificity screening, BPR1J-340 was tested against 59 protein kinases covering the major oncogenic kinases of human protein kinome. […] In addition, BPR1J-340 inhibited TRKA, which is associated with the growth and metastasis of breast cancers, with an IC50 value of 8 nM. Given the high similarity of the ATP binding pockets of FLT3 and the Aurora kinases, the inhibitory activity toward Aurora A and Aurora B were measured. […] Taken together, BPRJ-340 is a selective kinase inhibitor with in vitro activity against FLT3, VEGFR2, VEGFR3 and TRKA receptor tyrosine kinases.

Another experiment concerns the target T1, FLT3 D835Y (Homo sapiens, UniProt P36888, D835Y).
T1 sequence (P36888 27-993 D835Y): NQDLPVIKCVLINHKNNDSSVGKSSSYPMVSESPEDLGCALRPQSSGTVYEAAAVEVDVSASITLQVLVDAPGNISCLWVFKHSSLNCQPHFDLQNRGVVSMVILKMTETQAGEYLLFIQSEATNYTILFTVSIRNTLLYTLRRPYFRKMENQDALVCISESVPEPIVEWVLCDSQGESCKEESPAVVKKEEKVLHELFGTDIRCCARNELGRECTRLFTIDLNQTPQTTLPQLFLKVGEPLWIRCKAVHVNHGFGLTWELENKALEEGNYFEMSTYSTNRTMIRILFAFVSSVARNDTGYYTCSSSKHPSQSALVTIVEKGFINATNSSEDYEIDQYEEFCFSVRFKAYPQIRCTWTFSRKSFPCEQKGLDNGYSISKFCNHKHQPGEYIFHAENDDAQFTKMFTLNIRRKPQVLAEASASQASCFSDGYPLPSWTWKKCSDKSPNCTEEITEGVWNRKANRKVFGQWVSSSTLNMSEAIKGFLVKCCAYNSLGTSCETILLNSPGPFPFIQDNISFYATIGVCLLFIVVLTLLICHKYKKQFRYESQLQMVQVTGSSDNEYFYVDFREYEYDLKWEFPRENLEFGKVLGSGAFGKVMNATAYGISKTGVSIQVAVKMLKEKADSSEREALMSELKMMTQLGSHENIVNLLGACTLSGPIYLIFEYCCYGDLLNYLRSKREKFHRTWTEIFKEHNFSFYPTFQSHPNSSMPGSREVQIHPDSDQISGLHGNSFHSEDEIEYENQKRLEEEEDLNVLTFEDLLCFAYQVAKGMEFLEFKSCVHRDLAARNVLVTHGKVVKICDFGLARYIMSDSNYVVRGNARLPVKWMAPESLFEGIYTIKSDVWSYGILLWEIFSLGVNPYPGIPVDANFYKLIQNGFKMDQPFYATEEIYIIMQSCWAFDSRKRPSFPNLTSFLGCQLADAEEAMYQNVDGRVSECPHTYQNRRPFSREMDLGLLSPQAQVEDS
The experiment in a line: Invitrogen SelectScreen kinase profiling / IC50. The protocol:
as §1, §2

The next experiment has as its target NTRK1 (TRKA) (Homo sapiens, UniProt P04629). The experiment in a line: Invitrogen SelectScreen kinase profiling / IC50. The protocol: as §1, §2
Another experiment deals with KDR (VEGFR2) (Homo sapiens, UniProt P35968). The experiment in a line: VEGFR2 Kinase-Glo kinase assay. Further details: VEGFR2 (residues V789-V1356); made in house. The protocol:
(§3) The FLT3 inhibitors, BPR1J-340 and AC220, were synthesized by our laboratory. The histone deacetylase inhibitor vorinostat (SAHA) was purchased from SelleckBio (Houston, TX, USA). All inhibitors were dissolved in dimethylsulfoxide (DMSO) at a stock concentration of 10 mM. The anti-FLT3 (sc-480, Santa Cruz Biotechnology, Santa Cruz, CA, USA), anti-pFLT3-Tyr591 (#3461, Cell Signaling Technology, Beverly, MA, USA) anti-STAT5 (#9363, Cell Signaling Technology), anti-pSTAT5–Tyr694 (#9351, Cell Signaling Technology), anti-cleaved poly ADP-ribose polymerase (PARP) (#9542, Cell Signaling Technology), anti-Mcl-1 (#4572, Cell Signaling Technology), anti-caspase 3 (#9662, Cell Signaling Technology) and anti-β-actin (Gtx110546, GeneTex, Irvine, CA, USA) antibodies were purchased for Western blotting analysis. The preparation of recombinant proteins, FLT3 (residues Y567-S993), VEGFR1 (residues R781-I1338) and VEGFR2 (residues V789-V1356), for biochemical kinase assay was described previously. The VEGFR3 (residues M800-Y1363) proteins were purchased from Upstate (Billerica, MA, USA).
(§4) The FLT3 and VEGFR1/2 Kinase-Glo kinase assays were performed as reported by our earlier study. […] The kinase inhibition profiling and inhibitory activity of FLT3-D835Y, CSF1R, and TRKA were determined by Invitrogen SelectScreen® kinase profiling service (Carlsbad, California, USA).
For orientation: Kinase-Glo measures the ATP left after a reaction by luminescence.

A further experiment concerns the target FLT4 (VEGFR3) (Homo sapiens, UniProt P35916). In words: VEGFR3 Kinase-Glo kinase assay. Further details: VEGFR3 (residues M800-Y1363); purchased Upstate (Billerica, MA, USA). As for the experimental part: as §3, §4
The target of a further experiment is T2, FLT1 (VEGFR1) (Homo sapiens, UniProt P17948).
T2 construct: VEGFR1 (residues R781-I1338); made in house
T2 sequence (P17948 781-1338): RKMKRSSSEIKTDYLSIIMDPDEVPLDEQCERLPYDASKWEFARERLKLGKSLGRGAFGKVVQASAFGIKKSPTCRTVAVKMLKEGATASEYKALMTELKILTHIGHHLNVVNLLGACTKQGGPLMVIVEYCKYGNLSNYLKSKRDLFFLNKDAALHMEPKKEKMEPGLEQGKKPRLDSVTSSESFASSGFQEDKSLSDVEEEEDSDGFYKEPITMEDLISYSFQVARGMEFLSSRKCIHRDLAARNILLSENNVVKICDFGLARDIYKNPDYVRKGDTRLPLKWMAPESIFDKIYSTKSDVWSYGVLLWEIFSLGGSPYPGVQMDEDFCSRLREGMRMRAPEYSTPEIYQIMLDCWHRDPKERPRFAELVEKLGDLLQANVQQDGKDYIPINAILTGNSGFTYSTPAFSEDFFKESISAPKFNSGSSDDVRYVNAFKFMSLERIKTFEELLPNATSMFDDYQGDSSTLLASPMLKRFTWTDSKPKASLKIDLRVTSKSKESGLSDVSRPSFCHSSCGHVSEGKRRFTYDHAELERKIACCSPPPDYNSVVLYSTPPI
In words: VEGFR1 Kinase-Glo kinase assay. As for the experimental part:
as §3, §4

Sequence of NTRK1 (TRKA) (P04629 33-796): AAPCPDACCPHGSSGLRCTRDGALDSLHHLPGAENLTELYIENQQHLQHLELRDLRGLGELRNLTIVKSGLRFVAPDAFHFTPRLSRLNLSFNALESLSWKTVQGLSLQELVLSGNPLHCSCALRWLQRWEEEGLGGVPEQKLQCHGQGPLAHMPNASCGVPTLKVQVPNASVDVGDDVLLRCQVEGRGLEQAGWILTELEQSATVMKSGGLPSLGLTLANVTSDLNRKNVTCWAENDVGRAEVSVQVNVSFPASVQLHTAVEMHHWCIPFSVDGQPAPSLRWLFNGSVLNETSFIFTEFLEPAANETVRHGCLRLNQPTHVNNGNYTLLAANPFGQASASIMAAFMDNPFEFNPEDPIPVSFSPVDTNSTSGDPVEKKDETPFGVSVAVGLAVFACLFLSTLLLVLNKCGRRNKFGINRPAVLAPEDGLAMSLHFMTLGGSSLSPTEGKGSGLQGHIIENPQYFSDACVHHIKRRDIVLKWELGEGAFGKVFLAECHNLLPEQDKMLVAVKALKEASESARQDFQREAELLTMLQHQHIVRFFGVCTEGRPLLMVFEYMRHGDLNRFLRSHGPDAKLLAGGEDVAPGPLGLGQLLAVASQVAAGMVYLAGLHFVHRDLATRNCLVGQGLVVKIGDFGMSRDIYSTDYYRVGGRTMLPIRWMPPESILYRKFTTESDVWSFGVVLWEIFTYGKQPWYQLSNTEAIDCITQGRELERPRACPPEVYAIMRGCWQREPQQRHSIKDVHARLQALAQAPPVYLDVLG
Sequence of FLT4 (VEGFR3) (P35916 800-1363): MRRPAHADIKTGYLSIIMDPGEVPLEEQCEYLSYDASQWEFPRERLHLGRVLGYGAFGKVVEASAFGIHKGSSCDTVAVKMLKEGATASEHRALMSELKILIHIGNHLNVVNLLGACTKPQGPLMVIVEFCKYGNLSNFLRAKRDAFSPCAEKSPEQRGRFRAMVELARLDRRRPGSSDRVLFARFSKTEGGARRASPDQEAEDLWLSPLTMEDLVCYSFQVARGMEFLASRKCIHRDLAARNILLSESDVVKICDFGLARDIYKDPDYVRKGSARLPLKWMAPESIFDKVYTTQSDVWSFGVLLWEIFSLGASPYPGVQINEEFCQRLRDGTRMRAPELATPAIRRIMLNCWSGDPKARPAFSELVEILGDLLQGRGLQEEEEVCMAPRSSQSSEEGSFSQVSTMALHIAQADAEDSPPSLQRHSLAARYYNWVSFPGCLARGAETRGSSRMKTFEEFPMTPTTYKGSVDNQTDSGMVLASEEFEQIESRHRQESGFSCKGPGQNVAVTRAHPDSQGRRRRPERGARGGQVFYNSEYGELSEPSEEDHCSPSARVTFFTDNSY
Sequence of KDR (VEGFR2) (P35968 789-1356): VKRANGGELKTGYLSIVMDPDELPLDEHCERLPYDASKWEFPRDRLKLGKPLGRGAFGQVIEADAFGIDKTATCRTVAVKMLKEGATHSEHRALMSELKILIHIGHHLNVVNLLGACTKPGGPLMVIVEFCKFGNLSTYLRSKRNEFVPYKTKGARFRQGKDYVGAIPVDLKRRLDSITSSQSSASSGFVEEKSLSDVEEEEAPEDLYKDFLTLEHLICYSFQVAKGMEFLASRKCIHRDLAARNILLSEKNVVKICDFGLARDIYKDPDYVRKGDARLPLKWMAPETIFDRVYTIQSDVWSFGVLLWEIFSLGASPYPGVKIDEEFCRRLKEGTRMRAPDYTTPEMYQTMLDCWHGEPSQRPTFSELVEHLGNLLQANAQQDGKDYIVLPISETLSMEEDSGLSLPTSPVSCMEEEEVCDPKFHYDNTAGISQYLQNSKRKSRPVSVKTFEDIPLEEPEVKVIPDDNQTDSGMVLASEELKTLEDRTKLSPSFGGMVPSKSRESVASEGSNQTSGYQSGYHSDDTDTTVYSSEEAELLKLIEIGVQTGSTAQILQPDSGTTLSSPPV

With `CCc1cc(NC(=O)NCc2ccc(-c3cc(NC(=O)c4ccc(CN5CCN(C)CC5)cc4)[nH]n3)cc2)no1` [BPR1J-340, N1-(3-4-[([(5-ethyl-3-isoxazolyl)amino]carbonylamino)methyl]phenyl-1H-5-pyrazolyl)-4-[(4-methylpiperazino)methyl]benzamide], the inhibition at 0.1 µM against CSF1R (FMS) (100 nM) came to 73%; against FLT3 D835Y (FLT3 D835Y, 100 nM), 78%; on NTRK1 (TRKA) (NTRK1 (TRKA), 100 nM) it was 89%. The IC50 came to 78 nM against CSF1R (FMS) (Invitrogen SelectScreen kinase assay); 19 nM on FLT3 D835Y (FLT3-D835Y, Invitrogen SelectScreen kinase assay); 8 nM against NTRK1 (TRKA) (TRKA, Invitrogen SelectScreen kinase assay); 28 ± 9 nM against KDR (VEGFR2); 29 ± 7 nM at FLT4 (VEGFR3); 164 ± 24 nM at FLT1 (VEGFR1).

For orientation: inhibition means how much of the control response was suppressed. Low values mean little suppression, high ones strong suppression. Usually IC50 stands for the concentration that gives 50% inhibition. Low readings indicate higher potency, high ones lower potency.

(Values after PMC3885398, “Evaluation of the Antitumor Effects of BPR1J-340, a Potent and Selective FLT3 Inhibitor, Alone or in Combination with an HDAC Inhibitor, Vorinostat, in AML Cancer” (PLoS ONE, 2014).)
